The numbers were not newly measured in patent US8067364B2, “Deer antler extract for promoting angiogenesis” (Velvet Antler Research New Zealand Limited (VARNZ), priority 2003, dated 2011), which cites them from elsewhere.

No end group written: not given here.

Data set [1] concerns endothelial cells, wounds. Conditions: literature.
The test system of the next data set is wounds. To be noted: delivered by gene therapy, local sustained delivery; literature.

As to “Thymosin α1: peptide of the Thymosin family, potential wound healing agent (Ac-SDAAVDTSSEITTKDLKEKKEVVEEAEN; ends and bridges not checked; UniProt P06454 2-29, looked up)”, the “endothelial cell migration, angiogenesis, and wound healing” value in data set [1] was “stimulates endothelial cell migration, angiogenesis, and wound healing”.
VEGF: in the data set on wounds, the “angiogenesis and wound healing” value was “cause angiogenesis and enhanced wound healing”.
